From ChEMBL document CHEMBL1150517, “The structural feature of S1 subsite of carboxypeptidase A” (Bioorg Med Chem Lett, 1991)
pKi: −log10 of the molar value.

Molecular target: T1, Carboxypeptidase A1 (Bos taurus, UniProt P00730)
T1 sequence (P00730 whole entry): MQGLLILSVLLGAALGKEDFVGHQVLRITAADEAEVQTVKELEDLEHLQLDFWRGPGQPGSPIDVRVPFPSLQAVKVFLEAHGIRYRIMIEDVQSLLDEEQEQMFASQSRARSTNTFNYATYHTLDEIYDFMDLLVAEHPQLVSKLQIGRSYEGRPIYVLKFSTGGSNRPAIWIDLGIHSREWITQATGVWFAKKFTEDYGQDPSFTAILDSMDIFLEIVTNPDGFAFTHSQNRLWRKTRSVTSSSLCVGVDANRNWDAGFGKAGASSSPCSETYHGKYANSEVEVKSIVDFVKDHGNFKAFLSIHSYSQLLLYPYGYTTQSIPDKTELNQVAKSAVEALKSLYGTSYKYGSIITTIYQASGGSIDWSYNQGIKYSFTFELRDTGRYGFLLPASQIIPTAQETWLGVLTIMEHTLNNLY
Test: Binding affinity against carboxypeptidase A using hippurylphenylalanine as substrate

Compound	pKi
O=C(O)C(CS)Cc1cc(F)c(F)c(F)c1 (configuration not stated)	6.23
Cc1ccc(CC(CS)C(=O)O)cc1C (configuration not stated)	6.31
O=C(O)C(CS)Cc1ccc(F)c(F)c1 (configuration not stated)	6.60
O=C(O)C(CS)CC1CCCCC1 (configuration not stated)	5.63
O=C(O)C(CS)Cc1ccc(F)cc1 (configuration not stated)	7.43
Cc1cccc(CC(CS)C(=O)O)c1C (configuration not stated)	6.46
CC(C)(C)c1ccc(CC(CS)C(=O)O)cc1 (configuration not stated)	5.11
O=C(O)C(CS)Cc1cccc(F)c1 (configuration not stated)	7.46
O=C(O)C(CS)Cc1ccccc1 (configuration not stated)	7.96

More lines, in order of rising pKi, values ahead:

pKi	Compound
5.35	CC(C)c1ccc(CC(CS)C(=O)O)cc1 (configuration not stated)
5.64	O=C(O)C(CS)Cc1c(F)c(F)c(F)c(F)c1F (configuration not stated)
6.32	O=C(O)C(CS)Cc1cccc2ccccc12 (configuration not stated)
6.70	O=C(O)C(CS)Cc1ccc2ccccc2c1 (configuration not stated)
6.77	Cc1cccc(CC(CS)C(=O)O)c1 (configuration not stated)
6.92	Cc1ccccc1CC(CS)C(=O)O (configuration not stated)
6.95	Cc1ccc(CC(CS)C(=O)O)cc1 (configuration not stated)
7.35	O=C(O)C(CS)Cc1ccccc1F (configuration not stated)
